This is an account of results in PubChem BioAssay AID200 (DTP/NCI, 2004).

This assay deals with B6C3F1 mice, B16 melanoma ip, median survival T/C. The assay is described as follows: NCI In Vivo Anticancer Drug Screen. Data for tumor model B16 Melanoma (intraperitoneal) in B6C3F1 mice. The settings on record: endpoint: median survival time, higher = longer survival. On the procedure: The antitumor activity of compounds was measured in mice bearing transplantable tumors. Survival or tumor size were measured and the results are expressed as the measurement made in the treated group (T) divided by the measurement made in the vehicle treated control group (C). The tumor model used in this assay is B16 Melanoma (intraperitoneal) in B6C3F1 mice

[1] abbreviates: dose: 0.5 mg/kg/injection, schedule: Q01DX009 (ip), vehicle: Klucel (hydroxypropylcellulose) (HPC).
Setting [2] is: dose: 0.25 mg/kg/injection, schedule: Q01DX009 (ip), vehicle: water.
Where [3] appears, read: dose: 0.5 mg/kg/injection, schedule: Q01DX009 (ip), vehicle: water.
Where [4] appears, read: dose: 1.0 mg/kg/injection, schedule: Q01DX009 (ip), vehicle: water.

Where “and” joins values, the source holds several entries; their conditions need not be identical. Equal values may be shown once. Inconclusive results and toxic doses are left out.

Turning to `CCN(CC)CCNc1ccc(C)c2sc3ccccc3c(=O)c12`, the T/C was 103 % of control (dose: 6.25 mg/kg/injection, schedule: Q01DX009 (ip), vehicle: saline); 100 % of control (dose: 12.5 mg/kg/injection, schedule: Q01DX009 (ip), vehicle: saline); 104 % of control (dose: 25.0 mg/kg/injection, schedule: Q01DX009 (ip), vehicle: saline); 104 % of control (dose: 50.0 mg/kg/injection, schedule: Q01DX009 (ip), vehicle: saline); 118 % of control (dose: 100.0 mg/kg/injection, schedule: Q01DX009 (ip), vehicle: saline).
Take `COC(=O)C12OCC34C(CC5C(C)C6=CC(=O)OC6=CC5(C)C3C(O)C1O)OC(=O)C(O)C24` (stereo not drawn): the T/C by setting is: under setting [1], 154 % of control; (dose: 180.0 micrograms/kg/injection, schedule: Q01DX009 (ip), vehicle: Klucel (hydroxypropylcellulose) (HPC)) 116 % of control; (dose: 833.3 micrograms/kg/injection, schedule: Q01DX009 (ip), vehicle: Klucel (hydroxypropylcellulose) (HPC)) 153 % of control; (dose: 1388.8 micrograms/kg/injection, schedule: Q01DX009 (ip), vehicle: Klucel (hydroxypropylcellulose) (HPC)) 178 % of control.
For the compound `O=S(=O)(c1cccc(N=C=S)c1)c1cccc(N=C=S)c1`, the T/C is 109 % of control (dose: 6.25 mg/kg/injection, schedule: Q01DX009 (ip), vehicle: Klucel (hydroxypropylcellulose) (HPC)) and 94 % of control (dose: 12.5 mg/kg/injection, schedule: Q01DX009 (ip), vehicle: Klucel (hydroxypropylcellulose) (HPC)).
Turning to `O=C(O)CCC(NC(=O)c1ccccc1)C(=O)O` (stereo not drawn), the T/C was 93 % of control (dose: 50.0 mg/kg/injection, schedule: Q01DX009 (ip), vehicle: saline with Tween-80) and 106 % of control (dose: 100.0 mg/kg/injection, schedule: Q01DX009 (ip), vehicle: saline with Tween-80).
As for `O=C(NO)c1cc(O)c(O)c(O)c1`, the T/C reads like this: (dose: 25.0 mg/kg/injection, schedule: Q01DX009 (ip), vehicle: water) 100 % of control; (dose: 50.0 mg/kg/injection, schedule: Q01DX009 (ip), vehicle: water) 105 % of control; (dose: 100.0 mg/kg/injection, schedule: Q01DX009 (ip), vehicle: water) 114 % of control; (dose: 200.0 mg/kg/injection, schedule: Q01DX009 (ip), vehicle: water) 118 % of control.
Regarding `CCC[CH2][Sn]1([CH2]CCC)[O]C2C(CO)OC(n3ccc(N)nc3=O)C2[O]1` (stereo not drawn), the T/C was 94 % of control (dose: 0.05 mg/kg/injection, schedule: Q01DX009 (ip), vehicle: Klucel (hydroxypropylcellulose) (HPC)); 90 % of control (dose: 0.1 mg/kg/injection, schedule: Q01DX009 (ip), vehicle: Klucel (hydroxypropylcellulose) (HPC)); 101 % of control (dose: 0.2 mg/kg/injection, schedule: Q01DX009 (ip), vehicle: Klucel (hydroxypropylcellulose) (HPC)); 95 % of control (dose: 0.4 mg/kg/injection, schedule: Q01DX009 (ip), vehicle: Klucel (hydroxypropylcellulose) (HPC)).
For the compound `CO[C@@]12[C@H](COC(N)=O)C3=C(C(=O)C(C)=C(N)C3=O)N1C[C@@H]1N[C@@H]12`, the T/C reads like this: (dose: 0.12 mg/kg/injection, schedule: Q01DX009 (ip), vehicle: Klucel (hydroxypropylcellulose) (HPC)) 109 % of control; (dose: 0.12 mg/kg/injection, schedule: Q01DX009 (ip), vehicle: saline with Tween-80) 119 % of control; (dose: 0.12 mg/kg/injection, schedule: Q01DX009 (ip), vehicle: saline) 120 % of control and 100 % of control; (dose: 0.13 mg/kg/injection, schedule: Q01DX009 (ip), vehicle: water) 109 % of control and 110 % of control; (dose: 0.25 mg/kg/injection, schedule: Q01DX005 (ip), vehicle: saline) 124 % of control; (dose: 0.25 mg/kg/injection, schedule: Q01DX005 (iv), vehicle: saline) 107 % of control. In addition, the T/C (dose: 0.25 mg/kg/injection, schedule: Q01DX009 (ip), vehicle: Klucel (hydroxypropylcellulose) (HPC)) was 116 % of control; the T/C (dose: 0.25 mg/kg/injection, schedule: Q01DX009 (ip), vehicle: saline) is 115 % of control; the T/C under setting [2] is 124 % of control; the T/C (dose: 0.5 mg/kg/injection, schedule: Q01DX001 (ip), vehicle: clinical formulation) is 122 % of control; the T/C (dose: 0.5 mg/kg/injection, schedule: Q01DX005 (ip), vehicle: saline) was 166 % of control; the T/C (dose: 0.5 mg/kg/injection, schedule: Q01DX005 (iv), vehicle: saline) is 86 % of control. For the same compound, the T/C by setting is: under setting [1], 116 % of control; (dose: 0.5 mg/kg/injection, schedule: Q01DX009 (ip), vehicle: saline with Tween-80) 166 % of control; (dose: 0.5 mg/kg/injection, schedule: Q01DX009 (ip), vehicle: saline) 161 % of control; under setting [3], 150 % of control; (dose: 0.75 mg/kg/injection, schedule: Q04DX003 (ip), vehicle: clinical formulation) 121 % of control; (dose: 1.0 mg/kg/injection, schedule: Q01DX001 (ip), vehicle: saline) 165 % of control. In addition, the T/C is 93 % of control (dose: 1.0 mg/kg/injection, schedule: Q01DX001 (iv), vehicle: saline); 168 % of control (dose: 1.0 mg/kg/injection, schedule: Q01DX005 (ip), vehicle: saline); 155 % of control (dose: 1.0 mg/kg/injection, schedule: Q01DX009 (ip), vehicle: Klucel (hydroxypropylcellulose) (HPC)); 191 % of control (dose: 1.0 mg/kg/injection, schedule: Q01DX009 (ip), vehicle: saline with Tween-80); 185 % of control (dose: 1.0 mg/kg/injection, schedule: Q01DX009 (ip), vehicle: saline); 156 % of control and 173 % of control under setting [4]. Further, the T/C (dose: 1.0 mg/kg/injection, schedule: Q04DX003 (ip), vehicle: clinical formulation) was 156 % of control and 160 % of control; the T/C (dose: 1.25 mg/kg/injection, schedule: Q01DX009 (oral), vehicle: water) is 91 % of control; the T/C (dose: 2.0 mg/kg/injection, schedule: Q01DX001 (ip), vehicle: clinical formulation) is 159 % of control; the T/C (dose: 2.0 mg/kg/injection, schedule: Q01DX001 (iv), vehicle: saline) is 118 % of control; the T/C (dose: 2.0 mg/kg/injection, schedule: Q01DX005 (ip), vehicle: saline) is 179 % of control; the T/C (dose: 2.0 mg/kg/injection, schedule: Q01DX009 (ip), vehicle: water) is 190 % of control. For the same compound, the T/C (dose: 2.0 mg/kg/injection, schedule: Q04DX003 (ip), vehicle: clinical formulation) was 190 % of control and 195 % of control; the T/C (dose: 2.5 mg/kg/injection, schedule: Q01DX009 (oral), vehicle: water) was 102 % of control; the T/C (dose: 3.0 mg/kg/injection, schedule: Q04DX003 (ip), vehicle: clinical formulation) is 203 % of control; the T/C (dose: 4.0 mg/kg/injection, schedule: Q01DX001 (ip), vehicle: clinical formulation) was 193 % of control; the T/C (dose: 4.0 mg/kg/injection, schedule: Q01DX001 (ip), vehicle: saline) is 176 % of control; the T/C (dose: 4.0 mg/kg/injection, schedule: Q01DX001 (iv), vehicle: saline) was 115 % of control. The T/C (dose: 4.0 mg/kg/injection, schedule: Q04DX003 (ip), vehicle: clinical formulation) is 239 % of control; the T/C (dose: 8.0 mg/kg/injection, schedule: Q01DX001 (ip), vehicle: clinical formulation) is 164 % of control; the T/C (dose: 8.0 mg/kg/injection, schedule: Q01DX001 (ip), vehicle: saline) was 216 % of control.
Turning to `CCOc1cc2c(cc1C(C)c1ccc(OC)cc1)OCO2` (stereo not drawn), the T/C was 116 % of control (dose: 12.5 mg/kg/injection, schedule: Q01DX009 (ip), vehicle: distilled water + alcohol); 113 % of control (dose: 25.0 mg/kg/injection, schedule: Q01DX009 (ip), vehicle: distilled water + alcohol); 102 % of control (dose: 50.0 mg/kg/injection, schedule: Q01DX009 (ip), vehicle: distilled water + alcohol); 98 % of control (dose: 100.0 mg/kg/injection, schedule: Q01DX009 (ip), vehicle: distilled water + alcohol); 108 % of control (dose: 200.0 mg/kg/injection, schedule: Q01DX009 (ip), vehicle: distilled water + alcohol).
On to `CC(C)(O)/C=C/C(=O)[C@](C)(O)[C@H]1[C@H](O)C[C@@]2(C)[C@@H]3CC=C4[C@@H](C=C(O)C(=O)C4(C)C)[C@]3(C)C(=O)C[C@]12C`, for which the T/C runs as follows: under setting [2], 99 % of control; under setting [3], 89 % of control; under setting [4], 89 % of control.
